Results taken from publication PMC9505670, “The Effect of Short-Chain Fatty Acids on Growth of Cryptosporidium parvum In Vitro” (Microorganisms, 2022).
pEC50, pIC50: −log10 of the molar value. Where “and” joins values, the source holds several entries; their conditions need not be identical. Equal values may be shown once. Read-outs that look alike come from different tables or passages of the source.

Tests used:
C. parvum [1] = test system: C. parvum; set-up: method as in PMID 24273180; conditions: cited from earlier work
C. parvum [2] = test system: C. parvum; set-up: method as in PMID 24273180; conditions: cited from earlier work; remark: listed apart in the source
T. gondii [3] = test system: T. gondii; set-up: method as in PMID 17626366; conditions: cited from earlier work; for pIC50: cell monolayers infected and then treated
HCT-8 cells = experiment: Compound toxicity for host cell cultures (CellTiter 96 tetrazolium assay); type: cell-based, human
Experimental: (§1) Test compound toxicity for HCT-8 cell cultures was assessed using the CellTiter 96 Non-Radioactive Cell Proliferation/Cytotoxicity assay as recommended by the manufacturer (Promega Corporation, Madison, WI, USA).

C. parvum [4] = experiment: C. parvum in vitro culture assay, intracellular stages in infected HCT-8 cells; type: cell-based, Cryptosporidium parvum IOWA isolate
Experimental: Growth of C. parvum in cell culture was performed as described previously. Briefly, purified C. parvum IOWA isolate oocysts were washed with phosphate-buffered saline (PBS, pH 7.4) to remove the storage buffer (2.5% w/v aqueous potassium dichromate) and resuspended in RPMI 1640 media supplemented with 0.75% sodium taurocholate and incubated for 30 min at 37 °C. The excystation mixture containing oocysts, oocyst shells and free sporozoites was diluted with RPMI 1640 with 10% fetal bovine serum (FBS). Approximately 1 × 10^5 oocysts and sporozoites were dispensed per well in 24-well plates containing confluent HCT-8 cells. Host cells inoculated with the parasite mixture were incubated for 3 h and subsequently washed with PBS to remove free parasites (those that had not invaded host cells). PBS was replaced with fresh RPMI 1640 with 10% FBS with or without test compounds and the cultures were incubated for 48 h. In addition, RPMI 1640 with 10% FBS supplemented with DMSO (same concentration used with test compounds) was evaluated to determine the effect of inhibition or toxicity on cultures. Culture wells were washed with PBS, and then PBS was replaced by Bouin’s solution. After fixation of cultures, the Bouin solution was removed and decolorized with 70% ethanol, followed by 5 washes with PBS. Culture wells were labeled with an anti-C. parvum fluorescein-labeled monoclonal antibody (C3C3-FITC) and parasites were enumerated via quantitative fluorescent microscopy at 400× magnification using an Olympus IX73 microscope (Waltham, MA, USA). Twenty-four sequential, non-overlapping fields per well were captured as digital images, constituting a representative subsample of the entire well. The parasites were quantified using OpenCFU (https://sourceforge.net/projects/opencfu/, accessed on 4 October 2014) software based on the size of the fluorescing parasites and the parasite-specific fluorescent signal. Data were obtained from four well replicates, and each experiment was repeated at least twice. Dose–effect curves and the median effective concentration (EC50) of each compound alone or in combination was determined using CompuSyn (ComboSyn, Inc., Paramus, NJ, USA, ver. 2.1 for Microsoft Windows) computer software. The EC50 was defined as the concentration required for reducing the number of parasites by 50% compared with the untreated control. […]

[5] = test system: cytokine production in HCT-8 cells; experiment: Cytokine production, Luminex 48-plex, HCT-8 supernatants; type: cell-based, human; conditions: for majority of cytokines in the 48-plex assay (including IL-6 and TNF-α): 48 h treatment, alone or in combination with C. parvum infection
Experimental: For the cytokine assay, the in vitro infection assay was performed as described above. Supernatants from 24-well plates were collected and stored at –80 °C. Luminex multiplex assays were completed by Eve Technologies using the Human Cytokine discovery Array 48-plex Panel (Calgary, AB, Canada).

E. invadens = test system: E. invadens; set-up: method as in PMID 15659070; conditions: incubated individually; cited from earlier work
C. parvum sporozoites = experiment: SCFA treatment of live sporozoites before inoculation onto HCT-8 cells; type: cell-based, Cryptosporidium parvum; conditions: for inhibition of sporozoites: 45 min incubation with sporozoites prior to infection of host cell monolayers; for pEC50: sporozoites incubated 45 min with SCFA, washed, then 48 h development on HCT-8 cells, read-out: EC50 for Sporozoite Stages
Experimental: Sporozoites were prepared according to You et al., 1998 [15]. Briefly, after excystation, the C. parvum oocysts and sporozoite mixture was filtered through a […] filter using a syringe and centrifuged, washed and counted. Isolated sporozoites were incubated with different SCFAs for 45 min, then washed several times to remove SCFAs before plating on cell monolayers. Sporozoites were then inoculated onto HCT-8 cells and incubated for 3 h. Monolayers were then washed, media was replaced and parasites were allowed to develop for 48 h, as described in the culture assay above. Cells were fixed and labeled and parasitic stages were quantitated as described above.

[6] = Compound toxicity for host cell cultures (CellTiter 96 tetrazolium assay); type: cell-based, human; conditions: human; HDAC inhibitors; 48 h; read-out: Cytotoxicity Concentration (CC50) for HCT-8 Host Cells
Experimental: as §1

Cryptosporidium = test system: Cryptosporidium; set-up: method as in PMID 8917558; conditions: previously reported; cited from earlier work
apoptosis in HCT-8 cells = experiment: Apoptosis assay (Caspase-Glo 3/7); type: cell-based, human; conditions: 24 h
Experimental: In vitro assays were performed as described above. Briefly, HCT-8 cells were infected with C. parvum and/or treated with 1 mM butyrate for 24 h, after which the cells were analyzed for percent apoptosis. Control wells (uninfected, untreated) were compared with treated wells and infected wells. Apoptosis in HCT-8 cell cultures was measured using a commercially available assay (Promega Corporation, Madison, WI, USA). Caspase-Glo3/7 reagent was added directly to the assay wells.

CpHDAC3 = conditions: recombinant protein; cited from earlier work
autophagy in HCT-8 cells = experiment: Autophagy assay (autophagosome detection reagent); type: cell-based, human; conditions: 24 h
Experimental: In vitro assays were performed as described above. Briefly, HCT-8 cells were infected with C. parvum and/or treated with 1 mM butyrate for 24 h, after which the cells were analyzed for […]. Control wells (uninfected, untreated) were compared with treated wells and infected wells. An autophagy assay was used following the recommendation of the manufacturer (Sigma-Aldrich, St. Louis, MO, USA). The medium was removed from the wells and 100 µL of the proprietary autophagosome detection reagent was added directly to each well. The plate was then incubated for 45 min at 37 °C and 5% CO2. The detection reagent was then removed, and each well was washed 3 times with the provided wash buffer before measuring fluorescence (λex = 360/λem = 520 nm) with a microplate reader. The intensity of the fluorescence correlates directly with the amount of autophagy observed.

T. gondii [7] = test system: T. gondii; set-up: method as in PMID 34339265; conditions: treatment of mice; cited from earlier work
[8] = HDAC inhibitors, infected HCT-8 cells, 48 h, read-out: EC50 of Intracellular Stages
[9] = HCT-8 cells infected with C. parvum, 48 h treatment, read-out: EC50 for Intracellular Stages
[10] = Cryptosporidium parvum, HCT-8, 48 h, HCT-8 cells infected with C. parvum, 48 h treatment, read-out: EC50 for Intracellular Stages
[11] = C. parvum infected then 1 mM butyrate, 48 h, compared with butyrate alone or infection alone

Structure (SMILES): O=C(CCCCCCC(=O)Nc1ccccc1)NO [vorinostat]
- in vitro activity (C. parvum [1]): in vitro activity
- efficacy in a mouse model (C. parvum [2]): efficacy

Structure (SMILES): O=C(O)CCCc1ccccc1 [4-phenylbuyrate]
- inhibition of T. gondii in vitro (T. gondii [3]): inhibit

Structure (SMILES): COc1ccc(Cn2ccc3ccc(C(=O)NO)cc32)cc1 [PCI 34051]
- toxicity (HCT-8 cells; below 200 nM): no toxicity
- pEC50 (C. parvum [4]; [8]): 9.00 and 8.15 to 9.00
- majority of cytokines in the 48-plex assay (including IL-6 and TNF-α) [5]: did not increase cytokine expression
- majority of cytokines in the 48-plex assay (including IL-6 and TNF-α) ([5]; listed as PCI 34,051): not significantly altered

Structure (SMILES): CC(=O)O [Acetate]
- CC50 (HCT-8 cells): > 200000 µM
- pEC50 (C. parvum [4]; [9]): 2.40
- concentration range inhibiting encystment (E. invadens): 6 to 22 mM
- inhibition of sporozoites (C. parvum sporozoites): no inhibition
- pEC50 (C. parvum sporozoites): < 1.00

Structure (SMILES): CCC(=O)CCCCC[C@@H]1NC(=O)[C@H]2CCCCN2C(=O)[C@H]([C@@H](C)CC)NC(=O)[C@H](Cc2cn(OC)c3ccccc23)NC1=O [Apicidin]
- CC50 at 48 h [6]: 150 µM
- pEC50 (C. parvum [4]; Cryptosporidium parvum, HCT-8, 48 h, read-out: EC50 of Intracellular Stages, HDAC inhibitors, infected HCT-8 cells, 48 h): 7.70
- pEC50 (C. parvum [4]; read-out: EC50 of Intracellular Stages, HDAC inhibitors, infected HCT-8 cells, 48 h): 7.40
- anti-cryptosporidial activity at concentration (Cryptosporidium): 30 ng/mL

Structure (SMILES): CCCC(=O)O [Butyrate]
- apoptosis (apoptosis in HCT-8 cells; 1.0 mM alone, compared to control, p < 0.05): significantly higher percentage of apoptosis
- apoptosis (apoptosis in HCT-8 cells; C. parvum infection plus treatment 3 h after infection, 1 mM): additional increase in apoptosis
- pEC50 (C. parvum [4]; [10]): 2.00 to 2.40
- pEC50 (C. parvum [4]; [9]): 2.10 to 2.52
- concentration range inhibiting encystment (E. invadens): 6 to 22 mM
- inhibition of sporozoites (C. parvum sporozoites): inhibited growth
- pEC50 (C. parvum sporozoites; Cryptosporidium parvum): 2.70
- majority of cytokines in the 48-plex assay (including IL-6 and TNF-α) [5]: not significantly altered
- IL-1α [5, 11]: significant increase
- IL-8 [5, 11]: significant increase
- inhibition of CpHDAC3 (CpHDAC3): did not inhibit
- pIC50 (T. gondii [3]): 2.30 to 3.00
- inhibition of T. gondii in vitro (T. gondii [3]): inhibit
- autophagy (autophagy in HCT-8 cells; 1 mM alone, uninfected cells): no difference
- autophagy (autophagy in HCT-8 cells; cells infected with C. parvum and treated, 1 mM): significant decrease in autophagy

Structure (SMILES): CCC(=O)O [Propionate]
- pEC50 (C. parvum [4]; [9]): 2.40 to 2.52
- concentration range inhibiting encystment (E. invadens): 6 to 22 mM
- inhibition of sporozoites (C. parvum sporozoites): no inhibition
- pEC50 (C. parvum sporozoites): < 1.00

Structure (SMILES): CCCC(CCC)C(=O)O [Valproate, reference compound]
- pEC50 (C. parvum [4]; [10]): 2.00
- inhibition of sporozoites (C. parvum sporozoites): no inhibition
- pEC50 (C. parvum sporozoites; Cryptosporidium parvum): < 1.00
- number of T. gondii cysts in the brains of mice (T. gondii [7]): reduce the number of T. gondii cysts
- pIC50 (T. gondii [3]): 2.30 to 3.00
- inhibition of T. gondii in vitro (T. gondii [3]): inhibit

Structure (SMILES): CC(/C=C/C(=O)NO)=C\[C@@H](C)C(=O)c1ccc(N(C)C)cc1 [Trichostatin A]
- CC50 (HCT-8 cells; HDAC inhibitors, 48 h, read-out: Cytotoxicity Concentration (CC50) for HCT-8 Host Cells): > 200 µM
- pEC50 (C. parvum [4]; [8]): 7.70
- anti-cryptosporidial activity at concentration (Cryptosporidium): 30 ng/mL
